Experimental data reported in patent US20220409643A1, “ROR Gamma T Inhibitors and Topical Uses Thereof” (Dermira, inc., priority 2019, published 2022).

test system: IL17A; test: skin Resident Immune Cell Assay (sRICA), Th17 model, IL17A protein in media; type: cell-based; settings: 100 uM solution in 1% DMSO/OD applied topically to human skin; media collected 24 hours after Th17 activation
Procedure: A skin Resident Immune Cell Assay (sRICA) was used to test compounds for reduction of IL-17A protein upregulation in the Th17 sRICA model. In this model, human surgical skin waste was cultured in a transwell system, with the dermis in contact with cell culture media and the stratum corneum exposed to air. To perform the assay, each human skin sample was defatted and dermatomed to 750μm. Next, 8 mm punch biopsies were obtained and placed in a membrane transwell. The transwells were inserted into culture wells with complete media, and a cocktail of cytokines and antibodies were added to promote skin resident immune cell polarization.
RORγt inhibitors were prepared as a 100 uM solution in 1% DMSO/OD. […] of the prepared topical solution was applied to sRICA wells prepared for topical drug evaluation. Drugs were allowed to penetrate the skin overnight, for up to 24 hours prior to Th17 activation. Media was collected 24 hours after Th17 activation for IL17A protein assessment. IL17A protein was evaluated using the Quanterix IL17A detection kit on the SiMoA platform (via CRO Translational Biosciences). There was significant upregulation of IL17A with Th17 activation. Each study was normalized to the % max of IL17A production (i.e. the average IL17A concentration of Th17 activated skin alone) was set to 100%, all other values (untreated no activation and treated samples) were obtained as a percentage of this. […]

First: CC(C)(C)c1ccc(NC(=O)[C@H](NC(=O)[C@@H]2CNC(=O)C2)c2ccc3c(c2)CCO3)cc1F [(3S)-N-(2-((4-tert-butyl-3-fluorophenyl)amino)-1-(2,3-dihydro-1-benzofuran-5-yl)-2-oxoethyl)-5-oxopyrrolidine-3-carboxamide]
Second: COCc1ccc([C@@H](NC(=O)[C@H]2CNC(=O)C2)C(=O)Nc2ccc(C(C)(C)C)c(F)c2)cc1 [(3R)-N-((1R)-2-((4-tert-butyl-3-fluorophenyl)amino)-1-(4-(methoxymethyl)phenyl)-2-oxoethyl)-5-oxopyrrolidine-3-carboxamide]
The inhibition at 100 µM of the first is lower: 48.7% for the first, 74.1% for the second.

First: CC(C)n1c(=O)n(CC2CC(F)(F)C2)c(=O)c2cc(NC(=O)N3CCC[C@@H](N4Cc5ccccc5C4=O)C3)c(F)cc21 [(3R)-N-(3-((3,3-difluorocyclobutyl)-methyl)-7-fluoro-1-isopropyl-2,4-dioxo-1,2,3,4-tetrahydro-quinazolin-6-yl)-3-(1-oxo-1,3-dihydro-2H-isoindol-2-yl)-piperidine-1-carboxamide]
Second: CC(C)n1c(=O)n(CC2CC2)c(=O)c2cc(NC(=O)N3CCC[C@@H](NC(=O)c4cc(F)ccc4F)C3)c(F)cc21 [(3R)-N-(3-(cyclopropylmethyl)-7-fluoro-1-isopropyl-2,4-dioxo-1,2,3,4-tetrahydroquinazolin-6-yl)-3-((2,5-difluorobenzoyl)amino)-piperidine-1-carboxamide]
The inhibition at 100 µM of the first is higher: 73.1% for the first, 44.2% for the second.

Going from `COc1ccc2c(n1)CCN(C(=O)c1cc(O)no1)[C@H]2C(=O)Nc1cc(F)c2c(c1)CCC2(C)C` [(5R)-N-(7-fluoro-1,1-dimethyl-2,3-dihydro-1H-inden-5-yl)-6-((3-hydroxy-1,2-oxazol-5-yl)carbonyl)-2-methoxy-5,6,7,8-tetrahydro-1,6-naphthyridine-5-carboxamide] to `COc1ccc2c(c1)CCN(C(=O)c1cc(O)no1)[C@H]2C(=O)Nc1cc(F)c2c(c1)CCC2(C)C` (stereo in doubt) [N-(7-fluoro-1,1-dimethyl-2,3-dihydro-1H-inden-5-yl)-2-((3-hydroxy-1,2-oxazol-5-yl)carbonyl)-6-methoxy-1,2,3,4-tetrahydroisoquinoline-1-carboxamide], the inhibition at 100 µM falls from 46.9% to 42.3%.

First: COCc1ccc([C@@H](NC(=O)[C@@H]2CNC(=O)C2)C(=O)Nc2ccc(C(C)(C)C)c(F)c2)cc1 [(3S)-N-((1R)-2-((4-tert-butyl-3-fluorophenyl)amino)-1-(4-(methoxymethyl)phenyl)-2-oxoethyl)-5-oxopyrrolidine-3-carboxamide]
Second: COCc1ccc([C@@H](NC(=O)Cn2cnccc2=O)C(=O)Nc2ccc(C(C)(C)C)c(F)c2)cc1
The inhibition at 100 µM of the first is lower: 38.7% for the first, 72.1% for the second.

Molecule `COc1ccc2c(n1)CCN(C(=O)Cc1cc(O)no1)[C@H]2C(=O)Nc1ccc(C(C)(C)C)c(F)c1` [(5R)-N-(4-tert-butyl-3-fluorophenyl)-6-((3-hydroxy-1,2-oxazol-5-yl)acetyl)-2-methoxy-5,6,7,8-tetrahydro-1,6-naphthyridine-5-carboxamide] has an inhibition at 100 µM of 69.5%.

For `Cn1ncc2cc([C@@H](NC(=O)[C@@H]3CNC(=O)C3)C(=O)Nc3ccc([Si](C)(C)C)c(F)c3)ccc21` [drawing 89, (3S)-N-(2-((3-fluoro-4-(trimethylsilyl)phenyl)amino)-1-(1-methyl-1H-indazol-5-yl)-2-oxoethyl)-5-oxopyrrolidine-3-carboxamide], the “Activity in sRICA (% inhibition of IL17A)” value was 36.72%.

same assay, conditions: Homo sapiens, 24 h, 100 uM solution in 1% DMSO/OD applied topically to human skin; media collected 24 hours after Th17 activation

Compared with `COCc1ccc([C@@H](NC(=O)Cc2cc(O)no2)C(=O)Nc2cc(F)c([Si](C)(C)C)c(F)c2)cc1` [(2R)-N-(3,5-difluoro-4-(trimethylsilyl)phenyl)-2-(((3-hydroxy-1,2-oxazol-5-yl)acetyl)amino)-2-(4-(methoxymethyl)phenyl)acetamide], `COCc1ccc([C@@H](NC(=O)Cc2nnc(C)o2)C(=O)Nc2cc(F)c([Si](C)(C)C)c(F)c2)cc1` [(2R)-N-(3,5-difluoro-4-(trimethylsilyl)phenyl)-2-(4-(methoxymethyl)phenyl)-2-(((5-methyl-1,3,4-oxadiazol-2-yl)acetyl)amino)acetamide] is higher in inhibition at 100 µM: 53.9% for the first, 60.8% for the second.

Going from `COc1ccc([C@@H](NC(=O)N2CC[C@@H](O)C2)C(=O)Nc2ccc([Si](C)(C)C)c(F)c2)cc1` [(3R)-N-((1R)-2-((3-fluoro-4-(trimethylsilyl)phenyl)amino)-1-(4-methoxyphenyl)-2-oxoethyl)-3-hydroxypyrrolidine-1-carboxamide] to `COc1ccc([C@H](C(=O)Nc2ccc([Si](C)(C)C)c(F)c2)N(C)C(=O)c2cc(O)no2)cc1`, the inhibition at 100 µM rises from 46.9% to 76.9%.

First: COCc1ccc([C@@H](NC(=O)CN2C(=O)CNC2=O)C(=O)Nc2ccc([Si](C)(C)C)c(F)c2)cc1 [(2R)-2-(((2,5-dioxoimidazolidin-1-yl)acetyl)amino)-N-(3-fluoro-4-(trimethylsilyl)phenyl)-2-(4-(methoxymethyl)phenyl)acetamide]
Second: COCc1ccc([C@@H](NC(=O)Cn2ccc(=O)[nH]c2=O)C(=O)Nc2ccc([Si](C)(C)C)c(F)c2)cc1 [(2R)-2-(((2,4-dioxo-3,4-dihydropyrimidin-1(2H)-yl)acetyl)amino)-N-(3-fluoro-4-(trimethylsilyl)phenyl)-2-(4-(methoxymethyl)phenyl)acetamide]
The inhibition at 100 µM of the first is lower: 36.3% for the first, 68.6% for the second.

Compared with `CCn1c(=O)n(CCCOC)c(=O)c2cc(NC(=O)CC(C)CC(=O)Nc3ccc(C#N)c(Cl)c3)ccc21` (centres unmarked) [N-(3-chloro-4-cyanophenyl)-N′-(1-ethyl-3-(3-methoxypropyl)-2,4-dioxo-1,2,3,4-tetrahydroquinazolin-6-yl)-3-methylpentanediamide], `COCc1ccc([C@@H](NC(=O)Cn2c(=O)cc[nH]c2=O)C(=O)Nc2ccc([Si](C)(C)C)c(F)c2)cc1` is lower in inhibition at 100 µM: 60.8% for the first, 40.7% for the second.

First: COc1ccc2c(c1)OCCN(C(=O)Cc1cc(O)no1)[C@H]2C(=O)Nc1cc(F)c([Si](C)(C)C)c(F)c1 [(5R)-N-(3,5-difluoro-4-(trimethylsilyl)phenyl)-4-((3-hydroxy-1,2-oxazol-5-yl)acetyl)-8-methoxy-2,3,4,5-tetrahydro-1,4-benzoxazepine-5-carboxamide]
Second: COc1ccc2c(c1)CCN(C(=O)Cc1cc(O)no1)[C@H]2C(=O)Nc1cc(F)c([Si](C)(C)C)c(F)c1 [(1R)-N-(3,5-difluoro-4-(trimethylsilyl)phenyl)-2-((3-hydroxy-1,2-oxazol-5-yl)acetyl)-6-methoxy-1,2,3,4-tetrahydroisoquinoline-1-carboxamide]
The inhibition at 100 µM of the first is higher: 58.1% for the first, 49.2% for the second.

First: Cn1ncc2cc(C(NC(=O)[C@@H]3CNC(=O)C3)C(=O)Nc3ccc([Si](C)(C)C)c(F)c3)ccc21 (stereo partly drawn) [(3S)-N-(2-((3-fluoro-4-(trimethylsilyl)phenyl)amino)-1-(1-methyl-1H-indazol-5-yl)-2-oxoethyl)-5-oxopyrrolidine-3-carboxamide]
Second: COc1ccc([C@H](C(=O)Nc2cc(F)c([Si](C)(C)C)cc2F)N(C)C(=O)c2cc(O)no2)cc1 [N-((1R)-2-((2,5-difluoro-4-(trimethylsilyl)phenyl)amino)-1-(4-methoxyphenyl)-2-oxoethyl)-3-hydroxy-N-methyl-1,2-oxazole-5-carboxamide]
The inhibition at 100 µM of the first is higher: 58.3% for the first, 18.2% for the second.

With `CN(C(=O)c1cc(O)no1)[C@@H](C(=O)Nc1cc(F)c([Si](C)(C)C)c(F)c1)C1CCOCC1` (stereo in doubt) [N-(2-((3,5-difluoro-4-(trimethylsilyl)phenyl)amino)-2-oxo-1-(tetrahydro-2H-pyran-4-yl)ethyl)-3-hydroxy-N-methyl-1,2-oxazole-5-carboxamide] the inhibition at 100 µM was 82.5%.
